Laboratory results reported in paper PMC9280689, “Resistance to Powdery Mildew in Qingke Involves the Accumulation of Aromatic Phenolamides Through Jasmonate-Mediated Activation of Defense-Related Genes” (Frontiers in Plant Science, 2022).

Biological target: T1, HvTBT2 (Hordeum vulgare, UniProt A0A8I6X4Z6)
T1 construct: gene LOC123447140; full-length cDNA in pGEX-6p-1, GST fusion, E. coli BL21(DE3), purified
Assay: LC-MS product assay
Format: biochemical
Details: acyl donor; amine acceptor 100 μM (which amine not told); 10 mM MgCl2, Tris-HCl pH 7.4, 30 °C
Source text: LC-MS product assay on HvTBT2

T1 sequence (A0A8I6X4Z6 entry or part of it): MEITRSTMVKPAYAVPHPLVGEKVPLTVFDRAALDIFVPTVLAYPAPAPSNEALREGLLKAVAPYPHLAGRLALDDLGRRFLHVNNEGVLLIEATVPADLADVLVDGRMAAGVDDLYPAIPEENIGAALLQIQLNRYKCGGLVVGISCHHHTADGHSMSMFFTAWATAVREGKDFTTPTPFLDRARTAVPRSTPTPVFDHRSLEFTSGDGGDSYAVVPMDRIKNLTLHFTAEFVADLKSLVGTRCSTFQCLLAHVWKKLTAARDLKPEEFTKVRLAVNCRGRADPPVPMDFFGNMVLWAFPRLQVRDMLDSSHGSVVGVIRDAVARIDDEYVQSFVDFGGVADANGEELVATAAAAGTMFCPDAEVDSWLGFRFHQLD

Km: 382 ± 98.3 µM
SMILES: COc1cc(/C=C/C(=O)SCCNC(=O)CCNC(=O)[C@H](O)C(C)(C)COP(=O)(O)OP(=O)(O)OC[C@H]2O[C@@H](n3cnc4c(N)ncnc43)[C@H](O)[C@@H]2OP(=O)(O)O)ccc1O [Feruloyl-CoA]
